{"source": "patent US20230105108A1", "about": "“COMPOUNDS FOR THE TREATMENT OF BACTERIAL INFECTIONS AND POTENTIATION OF ANTIBIOTICS” (GEORGIA STATE UNIVERSITY RESEARCH FOUNDATION, INC., priority 2019, published 2023)", "key": {"E. coli strain NR698": {"tested_on": "E. coli strain NR698", "assay": "Sensitization of outer membrane leaky E. coli strain NR698", "format": "cell-based", "procedure": "Ery is short for erythromycin. […] E. coli NR698 was cultured with the antibiotic at various concentrations in the presence or absence of bacterial sensitizer for 24 h at 37° C. Then bacterial growth density was determined by measuring OD600. […] Then the growth density/% was calculated based on OD600.\nBacteria culture and MICs determination: Gram-negative bacteria were cultured in Mueller Hinton II cation-adjusted broth. Gram-positive bacteria were cultured in LB broth. Mycobacterium smegmatis was cultured in Middlebrook 7H9 Broth. MICs of antibiotics itself were determined by performing two-fold serial dilutions of antibiotics. MICs of antibiotics in the presence of bacterial sensitizers were determined by performing two-fold serial dilutions of antibiotics with or without a constant concentration of bacterial sensitizers. The MICs tests were performed on 96-well plates with a final volume of 200 μl Mueller Hinton II cation-adjusted broth in each well. Each well was inoculated with 5×10^5 CFU/ml bacteria and was incubated for 24 h at 37° C. with continuous shaking of 200 rpm. The bacterial density was then determined by OD600. Bacterial growth %=OD600 of antibiotic treatment group/OD600 of antibiotic non-treatment group. MICs was determined as the concentrations that inhibit more than 90% of bacteria growth."}, "E. coli": {"tested_on": "E. coli", "assay": "Influence of exogenous LPS and Mg2+ on bacterial sensitizer", "format": "cell-based", "conditions": "for effect of extra LPS in culture media on sensitization: LPS 0 to 40 μM; for effect of Mg2+ on sensitization activity: exogenous Mg2+; for Sensitization fold: rifampicin", "procedure": "The MICs of bacterial sensitizer and antibiotic combination in the presence of LPS (ranging from 0 to 40 μM) or Mg^2+ (ranging from 0 to 20 mM) was determined as described above (Bacteria culture and MICs determination section).\nVarious experiments were then conducted to examine the molecular target(s). […] Briefly, E. coli was treated with 5 μg/ml MD-124 (about 10 μM) with varying concentrations of LPS (from 0 to 40 μM) for 20 h. Then OD600 was measured.\nBriefly, E. coli was treated with […] MD-124 (about 10 μM) with varying concentrations of Mg^2+ (from 0 to 15 mM) for 20 h. Then OD600 was measured."}, "HEK293 cells": {"tested_on": "HEK293 cells", "assay": "Cytotoxicity on mammalian cells (CCK-8), HEK293", "format": "cell-based", "conditions": "for CC50: HEK293 cell line, 24 h; for IC50: Homo sapiens", "in_short": "(§1)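 Cells seeded a day ahead to ~80% confluency, exposed to varied compound concentrations for 24 h at 37° C, 5% CO2. CCK-8 added for a further 2 h and OD 450 nm read; viability expressed as percent of untreated control.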"}, "[1]": {"assay": "Cytotoxicity in H9c2 cells (CCK-8)", "format": "cell-based", "conditions": "rat, H9c2 cells; H9c2 cell line", "in_short": "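H9c2 cells were grown in DMEM with 10% FBS, seeded the day before, and exposed to a range of di-amidine concentrations for 24 h at 37 °C, 5% CO2. Viability was read by CCK-8 after 3 h at 37 °C as absorbance at 450 nm.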"}, "[2]": {"tested_on": "E. coli (lipid A part of LPS)", "assay": "Dansyl-PMBN displacement assay", "format": "binding", "conditions": "E. coli with 10 μM Dansyl-PMBN; sensitizer 0 to 200 μM", "procedure": "Panel (C) depicts a Dansyl-PMBN displacement assay. […] The fluorescent intensity of 10 μM Dansyl-PMBN in HEPES buffer was recorded as baseline F0. Fluorescent intensity/%=(F1−Fx)/(F1−F0). […] All results are triplicates.\nDansyl-PMBN displacement assay. Dansyl-PMBN was synthesized according to literature procedure. Dansyl-PMBN was dissolved in H2O to make 500 μM stock. Bacterial sensitizers were dissolved in ethanol to make 10 mM stock solutions. […] The E. coli stock was centrifuged at 3000 g for 10 min, washed with HEPES buffer (pH=7.2) and then centrifuged again to obtain bacteria pallet. The pallet was then gently resuspended in HEPES buffer to obtain a E. coli suspension with OD600 about 0.3. The experiment was performed on 96-well plates. Each well was supplied with 100 μl coli suspension with 10 μM Dansyl-PMBN, then to each well, different concentrations of bacterial sensitizers were added to achieve a final concentration ranging from 0 to 200 μM.\nMg^2+ can bridge between adjacent lipid A and enhance the membrane integrity. […] This phenomenon was also observed on MD-100. The culture medium for E. coli is Muller Hinton Broth (Cation adjusted), which already has at least 0.5 mM Mg^2+, so the “zero concentration point of Mg^2+” in FIG. 4 represents the amount of exogenous Mg^2+, not the total Mg^2+ in the culture medium. […] A fluorescent conjugate of a polymyxin-B derivative (Dansyl-PMBN, Scheme 3), which would show increased fluorescent intensity after binding to the lipid A part of LPS, was used to further probe this issue. In the presence of another component that can also binding to lipid A, Dansyl-PMBN would be replaced, leading to decreased fluorescent intensity."}, "NIH3T3 cells": {"tested_on": "NIH3T3 cells", "assay": "Cytotoxicity on mammalian cells (CCK-8), NIH3T3", "format": "cell-based", "conditions": "3T3 cell line; 24 h", "in_short": "as §1"}}, "note": "Counter-ions that a name gives are not always drawn. Like-named read-outs stand apart in the source and are kept apart here.", "data": [{"smiles": "Cc1cc(COc2ccc(C(=N)N)cc2)cc(COc2ccc(C(=N)N)cc2)c1", "note": "[MD-100, 4,4′-(((5-methyl-1,3-phenylene)bis(methylene))bis(oxy))dibenzimidamide dihydrochloride]", "values": [{"measurement": "sensitization of E. coli strain NR698", "setting": "E. coli strain NR698; erythromycin, MD-100, 24 h", "result": "failed to sensitize"}, {"measurement": "effect of extra LPS in culture media on sensitization", "setting": "E. coli", "result": "abolished the sensitization effect"}, {"measurement": "effect of Mg2+ on sensitization activity", "setting": "E. coli", "result": "decreased the sensitization ability"}, {"measurement": "CC50", "setting": "HEK293 cells", "result": 100, "unit": "µM"}, {"measurement": "IC50", "setting": "HEK293 cells; HEK293", "result": 100, "unit": "µM"}, {"measurement": "CC50 at 24 h", "setting": "[1]", "result": 50, "unit": "µM"}, {"measurement": "displacement of Dansyl-PMBN (fluorescent intensity)", "setting": "[2]", "result": "able to displace Dansyl-PMBN although not as much as MD-124"}, {"measurement": "CC50", "setting": "NIH3T3 cells", "result": 100, "unit": "µM"}]}, {"smiles": "N=C(N)c1ccc(COc2cc(OCc3ccc(C(=N)N)cc3)cc(C(F)(F)F)c2)cc1", "note": "[MD-124, 4,4′-(((5-(trifluoromethyl)-1,3-phenylene)bis(oxy))bis(methylene)) dibenzimidamide dihydrochloride]", "values": [{"measurement": "Sensitization fold", "setting": "E. coli strain NR698; E. coli NR698 towards clarithromycin, 5 μg/ml sensitizer", "result": 4, "unit": "fold"}, {"measurement": "MIC of rifampicin with 5 μg/ml MD-124", "setting": "E. coli; LPS 0 μM, rifampicin only 10 μg/ml", "result": 0.02}, {"measurement": "effect of extra LPS in culture media on sensitization", "setting": "E. coli", "result": "abolished the sensitization effect"}, {"measurement": "MIC of rifampicin with 5 μg/ml MD-124", "setting": "E. coli; LPS 5 μM", "result": 2.5}, {"measurement": "MIC of rifampicin with 5 μg/ml MD-124", "setting": "E. coli; LPS 10 μM", "result": 2.5}, {"measurement": "MIC of rifampicin with 5 μg/ml MD-124", "setting": "E. coli; LPS 20 μM", "result": 5}, {"measurement": "MIC of rifampicin with 5 μg/ml MD-124", "setting": "E. coli; LPS 40 μM", "result": 5}, {"measurement": "MIC of rifampicin with 5 μg/ml MD-124", "setting": "E. coli; LPS […]", "result": 1.25}, {"measurement": "MIC of rifampicin with 5 μg/ml MD-124", "setting": "E. coli; Mg2+ 0 mM, rifampicin only 10 μg/ml", "result": 0.02}, {"measurement": "MIC of rifampicin with 5 μg/ml MD-124", "setting": "E. coli; Mg2+ 1.25 mM", "result": 0.02}, {"measurement": "MIC of rifampicin with 5 μg/ml MD-124", "setting": "E. coli; Mg2+ 5 mM", "result": 1.25}, {"measurement": "MIC of rifampicin with 5 μg/ml MD-124", "setting": "E. coli; Mg2+ 10 mM", "result": 2.5}, {"measurement": "MIC of rifampicin with 5 μg/ml MD-124", "setting": "E. coli; Mg2+ 15 mM", "result": 5}, {"measurement": "MIC of rifampicin with 5 μg/ml MD-124", "setting": "E. coli; Mg2+ […]", "result": 0.04}, {"measurement": "effect of Mg2+ on sensitization activity", "setting": "E. coli", "result": "dampened the bacterial sensitization activity"}, {"measurement": "Sensitization fold", "setting": "E. coli; 5 μg/ml MD-124, LPS 0 μM", "result": 512, "unit": "fold"}, {"measurement": "Sensitization fold", "setting": "E. coli; 5 μg/ml MD-124, LPS 5 μM", "result": 4, "unit": "fold"}, {"measurement": "Sensitization fold", "setting": "E. coli; 5 μg/ml MD-124, LPS 10 μM", "result": 4, "unit": "fold"}, {"measurement": "Sensitization fold", "setting": "E. coli; 5 μg/ml MD-124, LPS 20 μM", "result": 2, "unit": "fold"}, {"measurement": "Sensitization fold", "setting": "E. coli; 5 μg/ml MD-124, LPS 40 μM", "result": 2, "unit": "fold"}, {"measurement": "Sensitization fold", "setting": "E. coli; 5 μg/ml MD-124, LPS […]", "result": 8, "unit": "fold"}, {"measurement": "Sensitization fold", "setting": "E. coli; 5 μg/ml MD-124, Mg2+ 0 mM", "result": 512, "unit": "fold"}, {"measurement": "Sensitization fold", "setting": "E. coli; 5 μg/ml MD-124, Mg2+ 5 mM", "result": 8, "unit": "fold"}, {"measurement": "Sensitization fold", "setting": "E. coli; 5 μg/ml MD-124, Mg2+ 10 mM", "result": 4, "unit": "fold"}, {"measurement": "Sensitization fold", "setting": "E. coli; 5 μg/ml MD-124, Mg2+ 15 mM", "result": 2, "unit": "fold"}, {"measurement": "Sensitization fold", "setting": "E. coli; 5 μg/ml MD-124, Mg2+ […]", "result": 256, "unit": "fold"}, {"measurement": "CC50", "setting": "HEK293 cells", "result": 100, "unit": "µM"}, {"measurement": "IC50", "setting": "HEK293 cells; HEK293 cells (Table 6), read-out: IC50", "result": 100, "unit": "µM"}, {"measurement": "CC50 at 24 h", "setting": "[1]", "result": 50, "unit": "µM"}, {"measurement": "displacement of Dansyl-PMBN (fluorescent intensity)", "setting": "[2]", "result": "steadily decreased in a concentration dependent fashion"}, {"measurement": "CC50", "setting": "NIH3T3 cells", "result": 100, "unit": "µM"}]}]}
